Measurements taken from patent US9695155B2, “Herbicidal substituted pyrimidinyloxy benzene compounds” (E. I. DU PONT DE NEMOURS AND COMPANY, priority 2013, dated 2017).

Key:
barnyardgrass [1] = assay: Test A preemergence; format: in vivo, Echinochloa crus-galli; details: for Barnyardgrass plant response rating (0 to 100 scale, 0 is no effect, 100 is complete control): 125 g ai/ha; for Barnyardgrass plant response rating: 500 g ai/ha, 0 to 100 scale where 0 is no effect and 100 is complete control
Method in brief: (§1)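 Compounds in non-phytotoxic solvent with surfactant applied as soil spray preemergence, or postemergence to plants 2-10 cm at one- to two-leaf stage, in loam/sand. After approximately 10 days in greenhouse, injury rated visually versus untreated controls, 0 (no effect) to 100 (complete control).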

large (Lg) crabgrass [2] = assay: Test A preemergence; format: in vivo, Digitaria sanguinalis; details: for Crabgrass, Large plant response rating (0 to 100 scale): 125 g ai/ha; for Crabgrass, Large plant response rating: 500 g ai/ha, 0 to 100 scale where 0 is no effect and 100 is complete control
Method in brief: as §1

giant foxtail [3] = assay: Test A preemergence; format: in vivo, Setaria faberii; details: for Foxtail, Giant plant response rating (0 to 100 scale): 125 g ai/ha; for Foxtail, Giant plant response rating: 500 g ai/ha, 0 to 100 scale where 0 is no effect and 100 is complete control
Method in brief: as §1

morningglory [4] = assay: Test A preemergence; format: in vivo, Ipomoea spp.; details: for Morningglory plant response rating (0 to 100 scale): 125 g ai/ha; for Morningglory plant response rating: 500 g ai/ha, 0 to 100 scale where 0 is no effect and 100 is complete control
Method in brief: as §1

pigweed [5] = assay: Test A preemergence; format: in vivo, Amaranthus retroflexus; details: for Pigweed plant response rating (0 to 100 scale): 125 g ai/ha; for Pigweed plant response rating: 500 g ai/ha, 0 to 100 scale where 0 is no effect and 100 is complete control
Method in brief: as §1

velvetleaf [6] = assay: Test A preemergence; format: in vivo, Abutilon theophrasti; details: for Velvetleaf plant response rating (0 to 100 scale): 125 g ai/ha; for Velvetleaf plant response rating: 500 g ai/ha, 0 to 100 scale where 0 is no effect and 100 is complete control
Method in brief: as §1

wheat [7] = assay: Test A preemergence; format: in vivo, Triticum aestivum; details: for Wheat plant response rating (0 to 100 scale): 125 g ai/ha; for Wheat plant response rating: 500 g ai/ha, 0 to 100 scale where 0 is no effect and 100 is complete control
Method in brief: as §1

corn [8] = assay: Test A preemergence; format: in vivo, Zea mays; details: for Corn plant response rating (0 to 100 scale): 125 g ai/ha; for Corn plant response rating: 500 g ai/ha, 0 to 100 scale where 0 is no effect and 100 is complete control
Method in brief: as §1

barnyardgrass [9] = assay: Test A postemergence; format: in vivo, Echinochloa crus-galli
Method in brief: as §1

large (Lg) crabgrass [10] = assay: Test A postemergence; format: in vivo, Digitaria sanguinalis
Method in brief: as §1

giant foxtail [11] = assay: Test A postemergence; format: in vivo, Setaria faberii
Method in brief: as §1

morningglory [12] = assay: Test A postemergence; format: in vivo, Ipomoea spp.
Method in brief: as §1

pigweed [13] = assay: Test A postemergence; format: in vivo, Amaranthus retroflexus
Method in brief: as §1

velvetleaf [14] = assay: Test A postemergence; format: in vivo, Abutilon theophrasti
Method in brief: as §1

wheat [15] = assay: Test A postemergence; format: in vivo, Triticum aestivum
Method in brief: as §1

corn [16] = assay: Test A postemergence; format: in vivo, Zea mays
Method in brief: as §1

rice = assay: Test B flooded paddy test; format: in vivo, Oryza sativa; details: Flood, 250 g ai/ha; 0 to 100 scale where 0 is no effect and 100 is complete control
Method in brief: (§2)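 Evaluation is visual, against untreated controls, 13 to 15 days after treatment. Before treatment, plants reached the 2-leaf stage; pots were then flooded 3 cm deep, compound was added to the water, and that level was maintained. Ratings run 0 to 100, with 100 meaning complete control.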

sedge, umbrella = assay: Test B flooded paddy test; format: in vivo, Cyperus difformis; details: Flood, 250 g ai/ha; 0 to 100 scale where 0 is no effect and 100 is complete control
Method in brief: as §2

Heteranthera limosa = assay: Test B flooded paddy test; format: in vivo; details: Flood, 250 g ai/ha; 0 to 100 scale where 0 is no effect and 100 is complete control
Method in brief: as §2

barnyardgrass [17] = assay: Test B flooded paddy test; format: in vivo, Echinochloa crus-galli; details: Flood, 250 g ai/ha; 0 to 100 scale where 0 is no effect and 100 is complete control
Method in brief: as §2

[18] = 125 g ai/ha, 0 to 100 scale, 0 no effect, 100 complete control
[19] = 500 g ai/ha, 0 to 100 scale where 0 is no effect and 100 is complete control
[20] = 125 g ai/ha, 0 to 100 scale where 0 is no effect and 100 is complete control

SMILES | Barnyardgrass plant response rating (0 to 100 scale, 0 is no effect, 100 is complete control) (barnyardgrass [1]) | Barnyardgrass plant response rating (barnyardgrass [1]) | Crabgrass, Large plant response rating (0 to 100 scale) (large (Lg) crabgrass [2]) | Crabgrass, Large plant response rating (large (Lg) crabgrass [2]) | Foxtail, Giant plant response rating (0 to 100 scale) (giant foxtail [3]) | Foxtail, Giant plant response rating (giant foxtail [3]) | Morningglory plant response rating (0 to 100 scale) (morningglory [4]) | Morningglory plant response rating (morningglory [4]) | Pigweed plant response rating (0 to 100 scale) (pigweed [5]) | Pigweed plant response rating (pigweed [5]) | Velvetleaf plant response rating (0 to 100 scale) (velvetleaf [6]) | Velvetleaf plant response rating (velvetleaf [6]) | Wheat plant response rating (0 to 100 scale) (wheat [7]) | Wheat plant response rating (wheat [7]) | Corn plant response rating (0 to 100 scale) (corn [8]) | Corn plant response rating (corn [8]) | Plant response rating, Barnyardgrass (barnyardgrass [9]; [19]) | Plant response rating, Crabgrass, Large (large (Lg) crabgrass [10]; [19]) | Plant response rating, Foxtail, Giant (giant foxtail [11]; [19]) | Plant response rating, Morningglory (morningglory [12]; [19]) | other results
NN=Cc1cccc(Oc2ncc(Cl)cn2)c1-n1cc(Cl)cn1 [Compound 295] | 0 | 0 | 0 | 0 | 0 | 0 | 0 | 0 | 20 | 60 | 0 | 0 | 0 | 0 | 0 | 0 | 0 | 0 | 0 | 40 | Plant response rating, Barnyardgrass (barnyardgrass [9]; [18]): 0; Plant response rating, Crabgrass, Large (large (Lg) crabgrass [10]; [18]): 0; Plant response rating, Foxtail, Giant (giant foxtail [11]; [18]): 0; Plant response rating, Morningglory (morningglory [12]; [18]): 40; Plant response rating, Pigweed (pigweed [13]; [18]): 40; Plant response rating, Pigweed (pigweed [13]; [19]): 70; Plant response rating, Velvetleaf (velvetleaf [14]; [18]): 30; Plant response rating, Velvetleaf (velvetleaf [14]; [19]): 30; Plant response rating, Wheat (wheat [15]; [18]): 0; Plant response rating, Wheat (wheat [15]; [19]): 0; Plant response rating, Corn (corn [16]; [18]): 0; Plant response rating, Corn (corn [16]; [19]): 0; Plant response rating, Rice (rice): 0; Plant response rating, Sedge, Umbrella (sedge, umbrella): 0; Plant response rating, Ducksalad (Heteranthera limosa): 0; Plant response rating, Barnyardgrass (barnyardgrass [17]): 0
FC(F)c1cccc(Oc2ncc(Cl)cn2)c1-n1cc(Cl)cn1 [Compound 209] | 60 | 100 | 100 | 100 | 100 | 100 | 10 | 70 | 100 | 100 | 90 | 90 | 0 | 20 | 0 | 20 | 100 | 90 | 90 | 90 | Barnyardgrass plant response rating (barnyardgrass [9]; [20]): 40; Crabgrass, Large plant response rating (large (Lg) crabgrass [10]; [20]): 70; Foxtail, Giant plant response rating (giant foxtail [11]; [20]): 70; Morningglory plant response rating (morningglory [12]; [20]): 50; Pigweed plant response rating (pigweed [13]; [20]): 100; Plant response rating, Pigweed (pigweed [13]; [19]): 100; Velvetleaf plant response rating (velvetleaf [14]; [20]): 100; Plant response rating, Velvetleaf (velvetleaf [14]; [19]): 100; Wheat plant response rating (wheat [15]; [20]): 0; Plant response rating, Wheat (wheat [15]; [19]): 70; Corn plant response rating (corn [16]; [20]): 30; Plant response rating, Corn (corn [16]; [19]): 70; Plant response rating, Rice (rice): 0; Plant response rating, Sedge, Umbrella (sedge, umbrella): 60; Plant response rating, Ducksalad (Heteranthera limosa): 75; Plant response rating, Barnyardgrass (barnyardgrass [17]): 30
